Results on 1 molecule are retold here after patent US20160280651A1, “COMPOUNDS THAT INDUCE ABA RESPONSES” (THE REGENTS OF THE UNIVERSITY OF CALIFORNIA, priority 2013, published 2016).

Entries after “also recorded” stand apart in the source; their conditions may differ.

Assay [1] has as its system Arabidopsis plants. Description: Transpirational water loss of detached leaves. It counts as in vivo. The note with it: 25 μM spray. As to the method: (§1) Physiological assays were performed on Arabidopsis plants grown at 22±2° C. and relative humidity (RH) 45±10% under a 16/8-h light/dark cycle. For transpirational water loss analyses in Arabidopsis, plants were pre-treated by aerosol spray of 4 ml solution containing 25 μM compound and 0.05% Tween-20. 12 4-week old plants were sprayed per compound or control analyzed. After overnight pre-treatment with compounds, the aerial portions were detached from roots, and their fresh weight measured at 20 min intervals over a 2 hour time period. To measure stomatal aperture, plants were pre-treated with compounds as described above, covered with plastic lids to maintain high RH and after overnight pre-treatment leaf epidermal impressions were obtained using Suzuki's Universal Micro-Printing (SUMP) method using SUMP impression solution with SUMP B plates (SUMP Laboratory). The leaf impressions were analyzed by light microscopy and stomatal apertures were determined from the pore widths using ImageJ 1.43v software (National Institutes of Health, USA). […] Pots were covered in Parafilm to so that the water loss measured was transpiration mediated. Soil water content % was determined by measuring pot weight and computed by removing dry soil weight from total weight.

For assay [2], the system named is broccoli, radish, alfalfa, soybean, barely, wheat, sorghum and maize seeds. Description: Germination inhibition in diverse species. The note with it: barley. The format is in vivo. An excerpt:
FIG. 13A-FIG. 13E. LC66C6 modulates ABA responses in diverse species. Germination inhibition (A) and transpirational water loss in detached leaves 2-hours after detachment (B) in response to compounds shown. The expression of ABA-responsive marker genes in Soybean (C), Barley (D) and Maize (E) after application of chemicals. D, P, L and A indicate DMSO, pyrabactin, LC66C6 and (+)-ABA, respectively.

Assay [3] deals with Arabidopsis seedlings. Nature of the assay: Root growth and plant growth inhibition of Arabidopsis seedlings. It counts as in vivo. On the procedure: FIG. 6A-FIG. 6C. LC66C6 inhibits plant growth. (A) Photographs showing the effect of ABA, Pyrabactin and LC66C6 on the wild type, abi1-1 and PYR/PYL quadruple mutant Arabidopsis genotypes. (B) Root growth inhibition and (C) plant growth inhibition by ABA, LC66C6 and pyrabactin. Two day old seedlings were transferred on ½×MS plate containing chemicals and phenotypes scored or photographed after a 5-day incubation on test compounds.

For assay [4], the system named is Arabidopsis plants. Nature of the assay: Stomatal aperture measurement. The format is in vivo. The note with it: wild-type, aba2 and abi1-1; 25 μM spray. As to the method: as §1
In assay [5] the test system is ABA-responsive genes. Nature of the assay: ABA-responsive gene expression in moss. It counts as in vivo, Physcomitrella patens. Particulars: 200 μM for 3 h. As to the method: FIG. 17A-FIG. 17D. The effect of ABA and its agonists in Physcomitrella patens and Chlamydomonas. Protonemal growth images (A) and quantitative analysis (B) of the effects of ABA and agonists on Phsycomitrella patens. Protonema were grown on 200 μM of specific test chemical for 10 days. […] Pyrabactin bleached protonema. (C) The expression of ABA-responsive genes of Physcomitrella patens. Protonema were treated with 200 μM chemical solutions for 3 h. (D) Colony growth of Chlamydomonas on the chemical with salinity stress and osmotic stress. There was no effect of ABA and LC66C6 on the Chlamydomonas growth with and without stresses.

The test system of assay [6] is MAPKKK18 promoter::GUS reporter. Description: MAPKKK18 promoter::GUS ABA-responsive reporter gene assay. It counts as in vivo, Arabidopsis. Particulars: guard cells, vascular tissues of leaves and roots, radicle tips of imbibed seeds. As to the method:
Existing ABA-responsive promoter-GUS fusions are, in our experience, not ideal due to either high background levels or relatively low induction levels in response to ABA. […] We therefore characterized the effects of agonists on MAPKKK18 promoter::GUS reporter transgenic plants. GUS staining was performed in a reaction buffer of the following composition: 50 mM sodium phosphate buffer pH 7.0, 0.05% Tween-20, 2.5 mM potassium ferrocyanide, 2.5 mM potassium ferricyanide, 1 mM X-gluc. The reaction buffer was vacuum infiltrated into test samples for 10 min two times and then incubated at 37° C. for 5 h. The reaction was stopped by washing the samples with 70% ethanol, and chlorophyll pigments bleached by incubation at 65° C.

In the case of `CCCN1C(=O)CCc2cc(NS(=O)(=O)Cc3ccc(C)cc3)ccc21` [LC66C6], the “Transpirational water loss in detached leaves” value is “did not reduce transpirational water loss” in assay [1] (abi1-1 mutant); “reduced the amount of transpirational water loss” in assay [1] (wild-type and aba2 mutant). Further, in assay [2], the “Inhibition of germination in diverse species” value is “inhibits germination; also recorded: greater than pyrabactin”. Also, in assay [3] (wild-type and mutant plants), the “Inhibition of plant growth” value was “significantly greater than the inhibition by pyrabactin, and comparable to that of (+)-ABA”. Besides, the “Inhibition of root elongation” value in assay [3] (wild-type, abi1 and quadruple mutant, all concentrations tested) is “comparable to or slightly more effective than (+)-ABA”. Besides, in assay [4], the Stomatal closure entry was “induces stomatal closure in wild-type and the aba2 mutant, but not in the abi1-1 mutant”. The “Expression of ABA-responsive genes in moss” value in assay [5] is recorded as “can induce the expression of ABA-responsive genes in moss”. In assay [6], the “Tissue pattern of reporter gene expression” value was “induces expression of reporter genes in the same tissues as (+)-ABA”.
